Each block holds one compound with its values, some of them ahead of it.
Key:
[1] = system: U87 cells; assay: U87 cell assay (antiproliferative/cytotoxicity); format: cell-based; conditions: U-87MG human glioblastoma cells
Outline: (§1)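 Readout is alamarBlue reduction by metabolically active cells, measured fluorometrically (excitation 530-560 nm, emission 590 nm) after 8 h at 37 °C. Compounds are applied for 5-6 days from a top final concentration of 10 μM in 1:3 steps, tested in duplicate. EC50 is derived from blank-corrected signals.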

[2] = system: MCF7 cells; assay: alamarBlue MCF7 cell assay (antiproliferative/cytotoxicity); format: cell-based; conditions: MCF7 human breast cancer cell line
Description: The H460, MB453, U87, MCF7 and BT474 alamarBlue cell assays provide EC50 values indicative of the antiproliferative or cytotoxic effects of the compounds to respectively the H460 (human non small cell line cancer), MB-453 (breast cancer cell line), U87 (glioblastoma cell line), MCF7 (breast cancer cell line) and BT474 (breast cancer cell line). As known in the field, antiproliferative or cytotoxic effect against this cell lines would be expected to be indicative of activity in treating lung, breast and brain cancers. See R. Marone R et al. Biochim. Biophys. Acta. 2008 January; 1784(1):159-85. S. Yaguchi et al., J. Natl. Cancer Inst. 2006 Apr. 19; 98(8):545-56.
Method Type: Antiproliferative/Cytotoxicity
alamarBlue® is designed to provide a rapid and sensitive measure of cell proliferation and cytotoxicity in various human and animal cell lines. The assay is based on the reduction of alamarBlue in the reducing environment of living (metabolically active) cells. In the presence of added cytotoxic or antiproliferative compounds, the innate metabolic activity ceases.
AlamarBlue is soluble and stable in culture medium. Measurements are made fluorometrically by exciting at 530-560 nm and measuring emission at 590 nm. In reporting percent alamarBlue reduction by monitoring fluorescence, data are expressed as fluorescence emission intensity units as a function of time of incubation.
3. Equipment • 96-well plates, flat bottom (Falcon, Cat. No.: 353072) • 96-well plates, U-shaped (Costar, Cat. No.: 3799) • CO2-Incubator • Microplate Reader, Spectramax Plus, Molecular Devices 4. Typical Procedure • Day 0: Seed 3000 BT-474 cells (IMDM/5% FCS, 1% NEAA, 1% Sodiumpyruvat) in 150 μl medium into a 96-well plate, flat bottom (include mediumblank). Incubate plates at 37° C. in a CO2 incubator overnight. • Day 1: Dilute compounds to a concentration 40 μM->1:3 in medium, 10 dilution steps, in 96-well plates. • Add 50 μl per well of each dilution (total volume per well 200 μl; final conc. of cpds: 10 μM->1:3). If required, test further dilutions. • All concentrations are tested in duplicates. • Controls: Cells w/o cpd. (+50 μl medium/DMSO). • Cells are incubated with compounds for 5-6 days. • Day 6 or 7: Add 25 μl of alamarBlue solution to each well and incubate for 8 hours at 37° C. Measure fluorescence by exciting at 530-560 nm and measuring emission at 590 nm. 5. Evaluation • Subtract average value for medium blank from sample readings • Calculate EC50 using GraphPad Prism (Fifty)

[3] = system: BT474 cells; assay: alamarBlue BT474 cell assay (antiproliferative/cytotoxicity); format: cell-based; conditions: BT-474 human breast cancer cell line
Outline: as §1

[4] = system: MB453 cells; assay: alamarBlue MB453 cell assay (antiproliferative/cytotoxicity); format: cell-based; conditions: Homo sapiens; MDA MB 453 breast cancer cell line
Outline: as §1

[5] = system: H460 cells; assay: alamarBlue H460 cell assay (antiproliferative/cytotoxicity); format: cell-based; conditions: NCI-H460; H460 human lung carcinoma cells
Outline: as §1

[6] = biological target: PI3Kalpha (Homo sapiens (Human), UniProt P42336); assay: Inhibition of PI3Kalpha-induced PIP-2 phosphorylation (filter-binding assay); format: biochemical; conditions: 33P-ATP, p85alpha/His-p110alpha, read-out: IC50 PI3Kα
Chain of PI3Kalpha (P42336 whole entry): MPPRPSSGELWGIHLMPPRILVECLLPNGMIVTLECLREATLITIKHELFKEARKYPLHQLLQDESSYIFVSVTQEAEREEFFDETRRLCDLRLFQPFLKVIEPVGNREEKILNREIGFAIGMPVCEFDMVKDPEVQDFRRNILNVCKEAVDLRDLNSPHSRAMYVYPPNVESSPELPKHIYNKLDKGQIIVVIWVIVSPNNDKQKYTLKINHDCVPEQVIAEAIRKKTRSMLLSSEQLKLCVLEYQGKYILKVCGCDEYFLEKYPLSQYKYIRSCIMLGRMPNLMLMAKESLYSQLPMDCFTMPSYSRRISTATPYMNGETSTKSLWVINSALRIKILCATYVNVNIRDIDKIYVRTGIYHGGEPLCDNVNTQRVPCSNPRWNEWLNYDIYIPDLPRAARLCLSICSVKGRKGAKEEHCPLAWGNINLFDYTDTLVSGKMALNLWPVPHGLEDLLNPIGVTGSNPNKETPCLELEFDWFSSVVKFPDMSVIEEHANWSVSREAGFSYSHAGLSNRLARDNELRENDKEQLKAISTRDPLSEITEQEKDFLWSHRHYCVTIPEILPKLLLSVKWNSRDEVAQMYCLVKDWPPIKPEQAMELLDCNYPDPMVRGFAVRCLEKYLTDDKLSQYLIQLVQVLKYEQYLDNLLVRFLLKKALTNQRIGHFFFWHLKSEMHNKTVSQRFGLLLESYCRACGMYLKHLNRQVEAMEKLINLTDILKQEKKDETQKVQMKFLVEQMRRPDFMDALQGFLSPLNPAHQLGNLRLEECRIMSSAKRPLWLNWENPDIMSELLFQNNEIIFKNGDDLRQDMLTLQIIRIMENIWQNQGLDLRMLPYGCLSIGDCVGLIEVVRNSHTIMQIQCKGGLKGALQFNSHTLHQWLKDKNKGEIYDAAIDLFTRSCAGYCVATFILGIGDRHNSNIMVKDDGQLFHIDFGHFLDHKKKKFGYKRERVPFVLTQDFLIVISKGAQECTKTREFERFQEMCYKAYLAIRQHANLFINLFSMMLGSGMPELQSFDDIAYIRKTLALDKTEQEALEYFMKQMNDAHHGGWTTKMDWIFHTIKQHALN
Outline: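 Radiometric filter-binding assay: PI3Kα (25 ng/well) preincubated 20 min at room temperature with compound and PIP2-containing lipid vesicles plus phosphotyrosine PDGFRβ peptide. Reaction started with cold ATP (1 μM final) and [33P]-ATP and run 120 min at room temperature; filter-captured radioactivity counted, IC50 from duplicate dilution series.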

- IC50 [6]: 0.86 nM
Compound: Cc1ncc(C#Cc2c(C)ncnc2N(C)C2CCOCC2)cc1NS(=O)(=O)c1ccc(F)cc1F [Example I-16, 2,4-Difluoro-N-(2-methyl-5-{4-methyl-6-[methyl-(tetrahydro-pyran-4-yl)-amino]-pyrimidin-5-ylethynyl}-pyridin-3-yl)-benzenesulfonamide]
- EC50 [1]: 839 nM
- EC50 [2]: 118 nM
- EC50 [3]: 309 nM
- EC50 [4]: 397 nM
- EC50 [5]: 226 nM

- IC50 [6]: 0.79 nM
Compound: CC(=O)N1CCN(c2ncnc(C)c2C#Cc2cnc(C)c(NS(=O)(=O)c3ccc(F)cc3F)c2)CC1 [Example I-17, N-{5-[4-(4-Acetyl-piperazin-1-yl)-6-methyl-pyrimidin-5-ylethynyl]-2-methyl-pyridin-3-yl}-2,4-difluoro-benzenesulfonamide]
- EC50 [1]: 1890 nM
- EC50 [2]: 73 nM
- EC50 [3]: 354 nM
- EC50 [4]: 521 nM
- EC50 [5]: 965 nM

- IC50 [6]: 1 nM
Compound: Cc1ncc(C#Cc2c(C)ncnc2N2CCN(C)CC2)cc1NS(=O)(=O)c1ccc(F)cc1F [Example I-18, 2,4-Difluoro-N-{2-methyl-5-[4-methyl-6-(4-methyl-piperazin-1-yl)-pyrimidin-5-ylethynyl]-pyridin-3-yl}-benzenesulfonamide]
- EC50 [1]: 358 nM
- EC50 [2]: 72 nM
- EC50 [3]: 221 nM
- EC50 [4]: 418 nM
- EC50 [5]: 269 nM

- IC50 [6]: 0.46 nM
Compound: Cc1ncnc(N2CCOCC2)c1C#Cc1cncc(NS(=O)(=O)c2ccccc2)c1 [Example I-19, N-[5-(4-Methyl-6-morpholin-4-yl-pyrimidin-5-ylethynyl)-pyridin-3-yl]-benzenesulfonamide]
- EC50 [1]: 707 nM
- EC50 [2]: 56 nM
- EC50 [3]: 373 nM
- EC50 [4]: 387 nM
- EC50 [5]: 319 nM

- IC50 [6]: 0.46 nM
Compound: Cc1ncnc(N2CCOCC2)c1C#Cc1cncc(NS(=O)(=O)c2ccc(F)cc2F)c1 [Example I-20, 2,4-Difluoro-N-[5-(4-methyl-6-morpholin-4-yl-pyrimidin-5-ylethynyl)-pyridin-3-yl]-benzenesulfonamide]
- EC50 [1]: 521 nM
- EC50 [2]: 22 nM
- EC50 [3]: 153 nM
- EC50 [4]: 281 nM
- EC50 [5]: 391 nM

- IC50 [6]: 0.53 nM
Compound: Cc1ncnc(N2CCOCC2)c1C#Cc1cncc(NS(=O)(=O)c2cccs2)c1 [Example I-21, Thiophene-2-sulfonic acid [5-(4-methyl-6-morpholin-4-yl-pyrimidin-5-ylethynyl)-pyridin-3-yl]-amide]
- EC50 [1]: 340 nM
- EC50 [2]: 40 nM
- EC50 [3]: 196 nM
- EC50 [4]: 155 nM
- EC50 [5]: 357 nM

- IC50 [6]: 0.8 nM
Compound: Cc1ncnc(N2CCOCC2)c1C#Cc1cncc(NS(=O)(=O)c2cccnc2)c1 [Example I-22, Pyridine-3-sulfonic acid [5-(4-methyl-6-morpholin-4-yl-pyrimidin-5-ylethynyl)-pyridin-3-yl]-amide]
- EC50 [1]: 10000 nM
- EC50 [2]: 1380 nM
- EC50 [3]: 3410 nM
- EC50 [4]: 1420 nM
- EC50 [5]: 4500 nM

- IC50 [6]: 0.66 nM
Compound: Cc1ncnc(N2CCOCC2)c1C#Cc1cncc(NS(=O)(=O)c2cnn(C)c2)c1 [Example I-23, 1-Methyl-1H-pyrazole-4-sulfonic acid [5-(4-methyl-6-morpholin-4-yl-pyrimidin-5-ylethynyl)-pyridin-3-yl]-amide]
- EC50 [1]: 1750 nM
- EC50 [2]: 214 nM
- EC50 [3]: 3500 nM
- EC50 [4]: 1040 nM
- EC50 [5]: 2180 nM

- IC50 [6]: 0.63 nM
Compound: CCc1ncnc(N2CCOCC2)c1C#Cc1cnc(OC)c(NS(=O)(=O)c2ccc(F)cc2F)c1 [Example I-25, N-[5-(4-Ethyl-6-morpholin-4-yl-pyrimidin-5-ylethynyl)-2-methoxy-pyridin-3-yl]-2,4-difluoro-benzenesulfonamide]
- EC50 [1]: 104 nM
- EC50 [2]: 11 nM
- EC50 [3]: 22 nM
- EC50 [4]: 46 nM
- EC50 [5]: 15 nM

- IC50 [6]: 0.59 nM
Compound: CCc1ncnc(N2CCOCC2)c1C#Cc1cnc(OC)c(NS(=O)(=O)c2ccccc2)c1 [Example I-26, N-[5-(4-Ethyl-6-morpholin-4-yl-pyrimidin-5-ylethynyl)-2-methoxy-pyridin-3-yl]-benzenesulfonamide]
- EC50 [1]: 97 nM
- EC50 [2]: 9 nM
- EC50 [3]: 28 nM
- EC50 [4]: 61 nM
- EC50 [5]: 21 nM

- IC50 [6]: 1 nM
Compound: CCc1ncnc(N(C)C)c1C#Cc1cnc(C)c(NS(=O)(=O)c2ccc(F)cc2)c1 [Example I-27, N-[5-(4-Dimethylamino-6-ethyl-pyrimidin-5-ylethynyl)-2-methyl-pyridin-3-yl]-4-fluoro-benzenesulfonamide]
- EC50 [1]: 1620 nM
- EC50 [2]: 10000 nM
- EC50 [3]: 10000 nM
- EC50 [4]: 1220 nM
- EC50 [5]: 791 nM

- IC50 [6]: 5 nM
Compound: CCc1ncnc(N2CCN(C3CC3)CC2)c1C#Cc1cnc(C)c(NS(=O)(=O)c2ccc(F)cc2)c1 [Example I-28, N-{5-[4-(4-Cyclopropyl-piperazin-1-yl)-6-ethyl-pyrimidin-5-ylethynyl]-2-methyl-pyridin-3-yl}-4-fluoro-benzenesulfonamide]
- EC50 [1]: 14400 nM
- EC50 [2]: 10000 nM
- EC50 [3]: 10000 nM
- EC50 [4]: 1850 nM
- EC50 [5]: 756 nM

- IC50 [6]: 0.44 nM
Compound: COc1ncc(C#Cc2c(C)ncnc2N2CCOCC2)cc1NS(=O)(=O)c1ccc(F)cc1F [Example I-29, 2,4-Difluoro-N-[2-methoxy-5-(4-methyl-6-morpholin-4-yl-pyrimidin-5-ylethynyl)-pyridin-3-yl]-benzenesulfonamide]
- EC50 [1]: 84 nM
- EC50 [2]: 3 nM
- EC50 [3]: 10 nM
- EC50 [4]: 28 nM
- EC50 [5]: 11 nM

- IC50 [6]: 0.43 nM
Compound: Cc1ncc(C#Cc2c(C)ncnc2N2CCOCC2)cc1NS(=O)(=O)c1ccc(F)cc1 [Example I-30, 4-Fluoro-N-[2-methyl-5-(4-methyl-6-morpholin-4-yl-pyrimidin-5-ylethynyl)-pyridin-3-yl]-benzenesulfonamide]
- EC50 [1]: 385 nM
- EC50 [2]: 21 nM
- EC50 [3]: 122 nM
- EC50 [4]: 148 nM
- EC50 [5]: 230 nM

- IC50 [6]: 0.97 nM
Compound: Cc1ncc(C#Cc2c(C)ncnc2N2CCOCC2)cc1NS(=O)(=O)c1cc(F)cc(F)c1 [Example I-31, 3,5-Difluoro-N-[2-methyl-5-(4-methyl-6-morpholin-4-yl-pyrimidin-5-ylethynyl)-pyridin-3-yl]-benzenesulfonamide]
- EC50 [1]: 609 nM
- EC50 [2]: 50 nM
- EC50 [3]: 178 nM
- EC50 [4]: 245 nM
- EC50 [5]: 509 nM

- IC50 [6]: 8 nM
Compound: CCc1ncnc(N(C)C)c1C#Cc1cnc(C)c(NS(C)(=O)=O)c1 [Example I-32, N-[5-(4-Dimethylamino-6-ethyl-pyrimidin-5-ylethynyl)-2-methyl-pyridin-3-yl]-methanesulfonamide]
- EC50 [1]: 1290 nM
- EC50 [2]: 617 nM
- EC50 [3]: 1880 nM
- EC50 [4]: 656 nM
- EC50 [5]: 1210 nM

- IC50 [6]: 1 nM
Compound: Cc1ncc(C#Cc2c(C)ncnc2N2CCOCC2)cc1NS(C)(=O)=O [Example I-37, N-[2-Methyl-5-(4-methyl-6-morpholin-4-yl-pyrimidin-5-ylethynyl)-pyridin-3-yl]-methanesulfonamide]
- EC50 [1]: 966 nM
- EC50 [2]: 134 nM
- EC50 [3]: 416 nM
- EC50 [4]: 318 nM
- EC50 [5]: 903 nM
